In patent publication US9695155B2, “Herbicidal substituted pyrimidinyloxy benzene compounds” (E. I. DU PONT DE NEMOURS AND COMPANY, priority 2013, dated 2017):

Legend:
barnyardgrass = experiment: Test A preemergence; assay type: in vivo, Echinochloa crus-galli; details: 0 to 100 scale where 0 is no effect and 100 is complete control
How it was run: (§1)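 Visual 0–100 rating (100 = complete control) taken about 10 d post-treatment relative to untreated checks. Preemergence: directed soil spray on sown loam/sand pots. Postemergence: seedlings 2–10 cm, 1–2 leaf. Non-phytotoxic solvent formulation with surfactant.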

pigweed [1] = experiment: Test A preemergence; assay type: in vivo, Amaranthus retroflexus
How it was run: as §1

velvetleaf = experiment: Test A preemergence; assay type: in vivo, Abutilon theophrasti
How it was run: as §1

large (Lg) crabgrass [2] = experiment: Test A postemergence; assay type: in vivo, Digitaria sanguinalis; details: 0 to 100 scale where 0 is no effect and 100 is complete control
How it was run: as §1

giant foxtail [3] = experiment: Test A postemergence; assay type: in vivo, Setaria faberii; details: 0 to 100 scale where 0 is no effect and 100 is complete control
How it was run: as §1

morningglory = experiment: Test A postemergence; assay type: in vivo, Ipomoea spp.; details: 0 to 100 scale where 0 is no effect and 100 is complete control
How it was run: as §1

pigweed [4] = experiment: Test A postemergence; assay type: in vivo, Amaranthus retroflexus; details: 0 to 100 scale where 0 is no effect and 100 is complete control
How it was run: as §1

corn [5] = experiment: Test A postemergence; assay type: in vivo, Zea mays; details: 0 to 100 scale where 0 is no effect and 100 is complete control
How it was run: as §1

large (Lg) crabgrass [6] = experiment: Test C preemergence; assay type: in vivo, Digitaria sanguinalis; details: for Crabgrass, Large plant response rating: preemergence
How it was run: (§2)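 Seeds are planted in blended loam soil and sand and treated preemergence, while seedlings in a peat moss/vermiculite medium receive postemergence sprays at 2 to 18 cm height. All plants stay in the greenhouse for 13 to 15 days before visual comparison with controls on a 0–100 scale.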

johnsongrass [7] = experiment: Test C preemergence; assay type: in vivo, Sorghum halepense; details: preemergence
How it was run: as §2

lambsquarters = experiment: Test C preemergence; assay type: in vivo, Chenopodium album; details: preemergence
How it was run: as §2

ragweed = experiment: Test C preemergence; assay type: in vivo, Ambrosia elatior; details: preemergence
How it was run: as §2

galium = experiment: Test C postemergence; assay type: in vivo, Galium aparine
How it was run: as §2

corn [8] = experiment: Test C postemergence; assay type: in vivo, Zea mays
How it was run: as §2

giant foxtail [9] = experiment: Test C postemergence; assay type: in vivo, Setaria faberii
How it was run: as §2

johnsongrass [10] = experiment: Test C postemergence; assay type: in vivo, Sorghum halepense
How it was run: as §2

kochia = experiment: Test C postemergence; assay type: in vivo, Kochia scoparia
How it was run: as §2

chickweed = experiment: Test C postemergence; assay type: in vivo, Stellaria media
How it was run: as §2

[11] = 500 g ai/ha, 0 to 100 scale where 0 is no effect and 100 is complete control
[12] = 16 g ai/ha, scale 0 to 100 (0 no effect, 100 complete control)
[13] = 62 g ai/ha, scale 0 (no effect) to 100 (complete control)
[14] = 125 g ai/ha, scale 0 (no effect) to 100 (complete control)
[15] = 16 g ai/ha, postemergence, 0 is no effect, 100 is complete control
[16] = 31 g ai/ha, postemergence, visual rating, scale 0 to 100 (0 no effect, 100 complete control), 13 to 15 days
[17] = 125 g ai/ha, postemergence, visual rating, scale 0 to 100 (0 no effect, 100 complete control)
[18] = Postemergence, 62 g ai/ha, scale 0 to 100 (0 no effect, 100 complete control)

Structure (SMILES): FC(F)(F)c1cnn(-c2c(Cl)cccc2Oc2ncc(Cl)cn2)c1 [Compound 167]
- Plant response rating, Barnyardgrass (barnyardgrass; 125 g ai/ha): 80
- Barnyardgrass plant response rating (barnyardgrass; 500 g ai/ha): 100
- Pigweed plant response rating (0 to 100 scale) (pigweed [1]; 125 g ai/ha): 100
- Pigweed plant response rating (pigweed [1]; [11]): 100
- Velvetleaf plant response rating (0 to 100 scale) (velvetleaf; 125 g ai/ha): 80
- Velvetleaf plant response rating (velvetleaf; [11]): 100
- Crabgrass, Large plant response rating (large (Lg) crabgrass [2]; 125 g ai/ha): 80
- Plant response rating, Crabgrass, Large (large (Lg) crabgrass [2]; 500 g ai/ha): 90
- Foxtail, Giant plant response rating (giant foxtail [3]; 125 g ai/ha): 90
- Plant response rating, Foxtail, Giant (giant foxtail [3]; 500 g ai/ha): 90
- Morningglory plant response rating (morningglory; 125 g ai/ha): 80
- Plant response rating, Morningglory (morningglory; 500 g ai/ha): 100
- Pigweed plant response rating (pigweed [4]; 125 g ai/ha): 100
- Plant response rating, Pigweed (pigweed [4]; 500 g ai/ha): 100
- Corn plant response rating (corn [5]; 125 g ai/ha): 40
- Plant response rating, Corn (corn [5]; 500 g ai/ha): 50
- Crabgrass, Large plant response rating (large (Lg) crabgrass [6]; [12]): 75
- Crabgrass, Large plant response rating (large (Lg) crabgrass [6]; [13]): 100
- Crabgrass, Large plant response rating (large (Lg) crabgrass [6]; [14]): 100
- Plant response rating, Crabgrass, Large (large (Lg) crabgrass [6]; Preemergence, 31 g ai/ha, scale 0 to 100, 0 no effect, 100 complete control): 98
- Johnsongrass plant response rating (johnsongrass [7]; [12]): 5
- Johnsongrass plant response rating (johnsongrass [7]; [13]): 80
- Johnsongrass plant response rating (johnsongrass [7]; [14]): 95
- Lambsquarters plant response rating (lambsquarters; [12]): 75
- Lambsquarters plant response rating (lambsquarters; [13]): 100
- Lambsquarters plant response rating (lambsquarters; [14]): 100
- Ragweed plant response rating (ragweed; [12]): 15
- Ragweed plant response rating (ragweed; [13]): 15
- Ragweed plant response rating (ragweed; [14]): 20
- Plant response rating (0 to 100), Galium (galium; [15]): 70
- Galium plant response rating (galium; [16]): 70
- Plant response rating, Galium (galium; [17]): 90
- Plant response rating, Galium (galium; [18]): 70
- Plant response rating (0 to 100), Corn (corn [8]; [15]): 5
- Corn plant response rating (corn [8]; [16]): 5
- Plant response rating, Corn (corn [8]; [17]): 15
- Plant response rating, Corn (corn [8]; [18]): 10
- Plant response rating (0 to 100), Foxtail, Giant (giant foxtail [9]; [15]): 10
- Foxtail, Giant plant response rating (giant foxtail [9]; [16]): 10
- Plant response rating, Foxtail, Giant (giant foxtail [9]; [17]): 30
- Plant response rating, Foxtail, Giant (giant foxtail [9]; [18]): 10
- Plant response rating (0 to 100), Johnsongrass (johnsongrass [10]; [15]): 5
- Johnsongrass plant response rating (johnsongrass [10]; [16]): 15
- Plant response rating, Johnsongrass (johnsongrass [10]; [17]): 25
- Plant response rating, Johnsongrass (johnsongrass [10]; [18]): 15
- Plant response rating (0 to 100), Kochia (kochia; [15]): 90
- Kochia plant response rating (kochia; [16]): 90
- Plant response rating, Kochia (kochia; [17]): 95
- Plant response rating, Kochia (kochia; [18]): 90
- Plant response rating (0 to 100), Chickweed (chickweed; [15]): 55
- Chickweed plant response rating (chickweed; [16]): 80
- Plant response rating, Chickweed (chickweed; [17]): 80
- Plant response rating, Chickweed (chickweed; [18]): 70
